Structures can show the parent of a compound that is named as a salt.
Legend:
Type in all cases: physicochemical
[1] = Effect of storage in frozen state prior to drying on selegiline HCl assay of fast-dispersing dosage forms
Protocol: (§1) 250 mg of the selegiline hydrochloride 2.0% dispersion formed in (a) above was dosed into each one of a series of pre-formed blister pockets having a pocket diameter of 12-mm. The blister laminate comprised 200 μm PVC/30 μm PE/PVDC 90 g per square metre. The product was frozen immediately in a liquid nitrogen freeze tunnel. The frozen product was then stored below −20° C. for a minimum of 24 hours prior to freeze-drying in a freeze drier using a drying temperature of +20° C. and a chamber pressure of 0.5 mbar. The freeze-dried units were then inspected for the presence of critical defects and the remainder of the batch sealed with lidding foil consisting of a paper/foil laminate (20 μm aluminium). Each blister was then coded with a batch number and over-wrapped in a preformed sachet by placing the blister in the sachet and sealing the open end of the sachet completely. Each sachet was then labeled with the product name, batch number, date of manufacture and suppliers name.
Two batches of selegiline fast-dispersing dosage forms manufactured as described in Example I were stored at different temperatures in the frozen state prior to drying.

[2] = Effect of pH modification (citric acid level) on stability of selegiline hydrochloride fast-dispersing dosage forms stored at 40° C./80% relative humidity; design: unit not given beside the values
Protocol: Gelatin (720 g) and mannitol (540 g) were dispersed in a portion of purified water (15.73 kg) by mixing thoroughly in the bowl of a vacuum mixer. The remaining water (1.5 litres) was added under vacuum while mixing using an anchor stirrer. The mix was then heated to 40° C.±2° C. and homogenized for ten minutes. The mix was cooled down to room temperature. When cooled, a 4500 g portion of the mix was removed into a stainless steel vessel and glycine (360 g), aspartame (90 g), grapefruit flavor (54 g), Opatint yellow (54 g) and citric acid (90 g) were then added sequentially to this portion while homogenizing using a bench top homogenizer. The remainder of the mix was transferred into a second stainless steel vessel. Selegiline hydrochloride (360 g) was then added to the mix in the second vessel and the mix homogenized for ten minutes using a bench top mixer to dissolve the drug. Once dispersion of the coloring agent was complete, the portion of the mix removed to the first vessel was returned to the mixer bowl together with the homogenized mix from the second vessel. The combined mixes were then mixed for at least 20 minutes. The bulk dispersion was then homogenized to ensure that mixing was complete.
as §1
A series of dosage forms were manufactured as described in Example 1 but the quantity of citric acid used was varied. The dosage forms were then stored at 40° C./80% relative humidity for up to 7 weeks and the quantity of selegiline hydrochloride in these dosage forms was assayed at regular intervals.

[3] = Solution pH of the dispersion at varied citric acid concentration
[4] = Physical properties of the dosage form at varied citric acid level; conditions: citric acid levels higher than 0.5%; causing, for instance, cracking and base melting
From the text: It can be seen that a minimum level of 0.5% citric acid is required to inhibit this loss of selegiline.

## C#CCN(C)C(C)Cc1ccccc1 (single isomer, unassigned; (-)) [selegiline hydrochloride, (−)-N,α-dimethyl-N-2-propynylphenethylamine]
[1]; Frozen storage temperature −20 ° C. prior to drying, 2 week
  Assay Selegiline HCI: 4.97 mg
[1]; Frozen storage temperature −20 ° C. prior to drying, 4 week
  Assay Selegiline HCI: 4.98 mg
[1]; Frozen storage temperature −20 ° C. prior to drying, Time = 0
  Assay Selegiline HCI: 5.01 mg
[1]; Frozen storage temperature −25 ° C. prior to drying, 1 week
  Assay Selegiline HCI: 4.85 mg
[1]; Frozen storage temperature −25 ° C. prior to drying, 2 week
  Assay Selegiline HCI: 4.79 mg
[1]; Frozen storage temperature −25 ° C. prior to drying, 4 week
  Assay Selegiline HCI: 4.74 mg
[1]; Frozen storage temperature −25 ° C. prior to drying, Time = 0
  Assay Selegiline HCI: 4.87 mg
[2]; citric acid 0 % w/w, solution pH 5.38, 1 week at 40° C./80% relative humidity
  quantity of selegiline hydrochloride in dosage form: 3.86
[2]; citric acid 0 % w/w, solution pH 5.38, 2 week at 40° C./80% relative humidity
  quantity of selegiline hydrochloride in dosage form: 3.31
[2]; citric acid 0 % w/w, solution pH 5.38, 4 week at 40° C./80% relative humidity
  quantity of selegiline hydrochloride in dosage form: 3.32
[2]; citric acid 0 % w/w, solution pH 5.38, Time = 0
  quantity of selegiline hydrochloride in dosage form: 4.79
[2]; citric acid 0.25 % w/w, solution pH 4.21, 1 week at 40° C./80% relative humidity
  quantity of selegiline hydrochloride in dosage form: 4.70
[2]; citric acid 0.25 % w/w, solution pH 4.21, 2 week at 40° C./80% relative humidity
  quantity of selegiline hydrochloride in dosage form: 4.67
[2]; citric acid 0.25 % w/w, solution pH 4.21, 4 week at 40° C./80% relative humidity
  quantity of selegiline hydrochloride in dosage form: 4.74
[2]; citric acid 0.25 % w/w, solution pH 4.21, 7 week at 40° C./80% relative humidity
  quantity of selegiline hydrochloride in dosage form: 4.65
[2]; citric acid 0.25 % w/w, solution pH 4.21, Time = 0
  quantity of selegiline hydrochloride in dosage form: 4.95
[2]; citric acid 0.50 % w/w, solution pH 3.82, 1 week at 40° C./80% relative humidity
  quantity of selegiline hydrochloride in dosage form: 4.98
[2]; citric acid 0.50 % w/w, solution pH 3.82, 2 week at 40° C./80% relative humidity
  quantity of selegiline hydrochloride in dosage form: 4.98
[2]; citric acid 0.50 % w/w, solution pH 3.82, 4 week at 40° C./80% relative humidity
  quantity of selegiline hydrochloride in dosage form: 4.98
[2]; citric acid 0.50 % w/w, solution pH 3.82, 7 week at 40° C./80% relative humidity
  quantity of selegiline hydrochloride in dosage form: 4.96
[2]; citric acid 0.50 % w/w, solution pH 3.82, Time = 0
  quantity of selegiline hydrochloride in dosage form: 5.05
[2]; citric acid 1.0 % w/w, solution pH 3.45, 1 week at 40° C./80% relative humidity
  quantity of selegiline hydrochloride in dosage form: 5.03
[2]; citric acid 1.0 % w/w, solution pH 3.45, 2 week at 40° C./80% relative humidity
  quantity of selegiline hydrochloride in dosage form: 5.04
[2]; citric acid 1.0 % w/w, solution pH 3.45, 4 week at 40° C./80% relative humidity
  quantity of selegiline hydrochloride in dosage form: 5.05
[2]; citric acid 1.0 % w/w, solution pH 3.45, 7 week at 40° C./80% relative humidity
  quantity of selegiline hydrochloride in dosage form: 5.00
[2]; citric acid 1.0 % w/w, solution pH 3.45, Time = 0
  quantity of selegiline hydrochloride in dosage form: 5.07
[2]; citric acid 2.0 % w/w, solution pH 3.11, 1 week at 40° C./80% relative humidity
  quantity of selegiline hydrochloride in dosage form: 4.99
[2]; citric acid 2.0 % w/w, solution pH 3.11, 2 week at 40° C./80% relative humidity
  quantity of selegiline hydrochloride in dosage form: 5.01
[2]; citric acid 2.0 % w/w, solution pH 3.11, 4 week at 40° C./80% relative humidity
  quantity of selegiline hydrochloride in dosage form: 5.02
[2]; citric acid 2.0 % w/w, solution pH 3.11, 7 week at 40° C./80% relative humidity
  quantity of selegiline hydrochloride in dosage form: 4.96
[2]; citric acid 2.0 % w/w, solution pH 3.11, Time = 0
  quantity of selegiline hydrochloride in dosage form: 5.04
[3]; Conc. of citric acid 0 % w/w
  Solution pH: 5.38
[3]; Conc. of citric acid 0.25 % w/w
  Solution pH: 4.21
[3]; Conc. of citric acid 0.50 % w/w
  Solution pH: 3.82
[3]; Conc. of citric acid 1.0 % w/w
  Solution pH: 3.45
[3]; Conc. of citric acid 2.0 % w/w
  Solution pH: 3.11
[4]
  effect on the physical properties of the dosage form: deleterious effect

From US6423342B1, “Process for the preparation of a solid pharmaceutical dosage form” (R. P. Scherer Corporation, priority 1995, dated 2002)
